For the experiment, the target named is T1, hNPRA (Homo sapiens, UniProt P16066).
T1 construct: expressed in transfected cells
T1 sequence (P16066 33-1061): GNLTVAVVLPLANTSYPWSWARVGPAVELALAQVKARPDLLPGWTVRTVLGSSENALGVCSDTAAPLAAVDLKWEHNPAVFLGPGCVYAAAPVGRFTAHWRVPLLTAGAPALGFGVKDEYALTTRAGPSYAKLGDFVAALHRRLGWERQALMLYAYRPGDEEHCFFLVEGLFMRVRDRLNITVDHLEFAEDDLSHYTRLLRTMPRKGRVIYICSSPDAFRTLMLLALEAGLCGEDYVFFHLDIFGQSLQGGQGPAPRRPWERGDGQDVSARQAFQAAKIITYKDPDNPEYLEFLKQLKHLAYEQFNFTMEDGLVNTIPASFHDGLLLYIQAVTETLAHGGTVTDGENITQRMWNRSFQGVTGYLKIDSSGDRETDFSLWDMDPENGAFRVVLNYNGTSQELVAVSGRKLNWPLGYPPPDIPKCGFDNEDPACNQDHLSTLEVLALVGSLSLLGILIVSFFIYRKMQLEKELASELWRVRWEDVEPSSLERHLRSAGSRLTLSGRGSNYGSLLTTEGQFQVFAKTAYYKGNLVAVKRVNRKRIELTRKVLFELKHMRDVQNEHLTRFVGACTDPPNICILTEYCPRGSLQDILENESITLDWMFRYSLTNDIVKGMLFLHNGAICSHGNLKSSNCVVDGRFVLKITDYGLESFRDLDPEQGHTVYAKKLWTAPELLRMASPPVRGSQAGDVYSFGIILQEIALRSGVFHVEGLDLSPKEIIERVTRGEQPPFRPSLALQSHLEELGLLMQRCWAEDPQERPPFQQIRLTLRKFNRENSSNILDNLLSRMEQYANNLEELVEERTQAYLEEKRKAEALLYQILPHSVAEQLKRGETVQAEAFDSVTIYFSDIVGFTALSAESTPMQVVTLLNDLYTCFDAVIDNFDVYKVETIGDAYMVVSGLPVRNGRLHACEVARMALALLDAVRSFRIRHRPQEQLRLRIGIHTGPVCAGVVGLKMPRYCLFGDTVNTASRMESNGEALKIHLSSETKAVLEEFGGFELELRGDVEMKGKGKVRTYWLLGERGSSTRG
The experiment can be described thus: NPRA Functional Cell Assay (cGMP HTRF). The conditions noted are these: Human NPRA HEK JumpIn stable cells; cGMP by HTRF after 1 hour at 37° C.; 10-point dose response. Format: cell-based. An excerpt: Assay Buffer components HEPES and Opti-MEM® I Reduced-Serum with Glutamine (no phenol red) were from Gibco/Invitrogen (Thermo Fisher Scientific, Waltham, Mass. USA). 3-Isobutyl-1-methylxanthine (IBMX) and 4-(3-Butoxy-4-methoxybenzyl)imidazolidin-2-one (RO20) were obtained from Sigma-Aldrich (St. Louis, Mo., USA). DPBS (Dulbecco's phosphate-buffered saline) without Ca2+ and Mg2+ was purchased from GE Healthcare Bio-Sciences (Pittsburgh, Pa., USA). 384 well white Optiplates were from Perkin Elmer (Atlantic Highlands, N.J., USA). Human ANP (Atrial Natriuretic Peptide) (1-28) was purchased from Sigma-Aldrich (Catalog #A1663) and rat ANP (1-28) from Bachem (Torrance, Calif., USA) (Catalog #H2100). Human-BNP (Human-Brain Natriuretic Peptide) (1-32 AA) was purchased from American Peptide Company (Sunnyvale, Calif., USA) (product No. 14-1-90). cGMP kits were purchased from Cisbio. The assay ready frozen (ARF) Human/rat/dog NPRA HEK JumpIn Stable frozen cells (low passage number 5-11) were prepared in-house.
Test compounds were titrated in DMSO in a 10-point dose response in a separate step followed by a 100-fold dilution into the reaction. Positive response for each assay was determined using 10 nM rat-ANP peptide (rat cells) or 50 nM h-ANP peptide (human and dog cells).
Cells were thawed, washed with DPBS and resuspended in assay buffer (Opti-MEM+Glutamine, phenol red free media, 10 mM HEPES, 100 uM IBMX and 100 uM RO20) that was warmed to 37° C. Cells were then transferred to microplates via a Microplate Combi dispenser at a density of 1500, 400 and 1200 cells/well for human, rat and dog cells respectively, followed by acoustic transfer (Echo) of compound.
Compounds and cells were incubated at 37° C. with 5% CO2 for 1 hour, after which the cells were lysed and cGMP was captured using a CisBio cGMP HTRF assay kit. The TRF signal was measured with an Envision plate reader (emission set to 615 and 665 nm) after 1 hour incubation at ambient temperature. The TRF signal was converted to [cGMP] through the use of a cGMP calibration curve on each microplate. EC50's were generated from the resulting dose response curves by use of a 4 parameter logistic algorithm.
Assay Buffer components HEPES and Opti-MEM® I Reduced-Serum with Glutamine (no phenol red) were from Gibco/Invitrogen. 3-Isobutyl-1-methylxanthine (IBMX) and 4-(3-Butoxy-4-methoxybenzyl)imidazolidin-2-one (RO20) were obtained from Sigma. DPBS (Dulbecco's phosphate-buffered saline) without Ca2+ and Mg2+ was purchased from GE Healthcare Bio-Sciences (Pittsburgh, Pa., USA). 384 well white Optiplates were from Perkin Elmer (Atlantic Highlands, N.J., USA). Human ANP (1-28) was purchased from Sigma (A1663) and rat ANP (1-28) from Bachem (H2100). Human-BNP (1-32 AA) was purchased from American Peptide Company (Sunnyvale, Calif., USA) (product No. 14-1-90). cGMP kits were purchased from Cisbio (Bedford, Mass., USA). The assay ready frozen (ARF) Human/rat/dog NPRA HEK JumpIn Stable frozen cells (low passage number 5-11) were prepared in-house.
Compounds and cells were incubated at 37° C. with 5% CO2 for 1 hour, after which the cells were lysed and cGMP was captured using a CisBio cGMP HTRF assay kit. The TRF signal was measured with an Envision® plate reader (Perkin Elmer)(emission set to 615 and 665 nm) after 1 hour incubation at ambient temperature. The TRF signal was converted to [cGMP] through the use of a cGMP calibration curve on each microplate. EC50's were generated from the resulting dose response curves by use of a 4 parameter logistic algorithm.
hNPRA EC50 (nM) are were determined for the compounds of Example 1 through 273 and are reported in the Experimental section of this application.
For orientation: Time-resolved FRET reads energy transfer from a long-lived donor to a nearby acceptor.

pEC50: −log10 of the molar value.

The term pEC50 denotes the negative decadic logarithm of the EC50, by convention in mol/L. Consider `CC(C)[C@]1(F)CCc2nc3c(F)cc(C(=O)N[C@H](CCN4CCC(C(C)(C)O)CC4)c4ccc(-c5ccnnc5)nc4)cc3cc2C1` (racemic) [Example 47, rac-(7S)-4,7-difluoro-7-isopropyl-N-[rac-(1R)-3-[4-(1-hydroxy-1-methyl-ethyl)piperidin-1-ium-1-yl]-1-(6-pyridazin-4-yl-3-pyridyl)propyl]-6,8-dihydro-5H-acridine-2-carboxamide;2,2,2-trifluoroacetate], for which the pEC50 is 6.72. The result for `CC(C)[C@]1(F)CCc2nc3c(F)cc(C(=O)N[C@H](CCN4CCC5(CC[C@H](O)C5)CC4)c4ccc(-c5ccnnc5)nc4)cc3cc2C1` (racemic) [Example 48, rac-(7S)-4,7-difluoro-7-isopropyl-N-[rac-(1R)-1-(6-pyridazin-4-yl-3-pyridyl)-3-[rac-(3S)-3-hydroxy-8-azaspiro[4.5]decan-8-yl]propyl]-6,8-dihydro-5H-acridine-2-carboxamide] reads 6.98; that for `CC(C)[C@]1(F)CCc2nc3c(F)cc(C(=O)N[C@H](CCN4CCC5(CC[C@@H](O)C5)CC4)c4ccc(-c5ccnnc5)nc4)cc3cc2C1` (racemic) [Example 49, rac-(7S)-4,7-difluoro-7-isopropyl-N-[rac-(1R)-1-(6-pyridazin-4-yl-3-pyridyl)-3-[rac-(3R)-3-hydroxy-8-azaspiro[4.5]decan-8-yl]propyl]-6,8-dihydro-5H-acridine-2-carboxamide], 7.01. `CC(C)[C@]1(F)CCc2nc3c(F)cc(C(=O)N[C@H](CCN4CCC5(CC4)COC5)c4ccc(-c5ccnnc5)nc4)cc3cc2C1` (racemic) [Example 50, rac-(7S)-4,7-difluoro-7-isopropyl-N-[rac-(1R)-3-(2-oxa-7-azaspiro[3.5]nonan-7-yl)-1-(6-pyridazin-4-yl-3-pyridyl)propyl]-6,8-dihydro-5H-acridine-2-carboxamide] showed a pEC50 of 6.62. The result for `COCCCC1CCN(CC[C@@H](NC(=O)c2cc(F)c3nc4c(cc3c2)C[C@](F)(C(C)C)CC4)c2ccc(-c3ccnnc3)nc2)CC1` (racemic) [Example 51, rac-(7S)-4,7-difluoro-7-isopropyl-N-[rac-(1R)-3-[4-(3-methoxypropyl)-1-piperidyl]-1-(6-pyridazin-4-yl-3-pyridyl)propyl]-6,8-dihydro-5H-acridine-2-carboxamide] reads 6.76; that for `CC(C)[C@]1(F)CCc2nc3c(F)cc(C(=O)N[C@H](CCN4CCC5(O)CCCCC5C4)c4ccc(-c5ccnnc5)nc4)cc3cc2C1` (mixture of isomers) [Example 52, rac-(7S)-4,7-difluoro-7-isopropyl-N-[rac-(1R)-3-(4a-hydroxy-1,3,4,5,6,7,8,8a-octahydroisoquinolin-2-yl)-1-(6-pyridazin-4-yl-3-pyridyl)propyl]-6,8-dihydro-5H-acridine-2-carboxamide], 6.59; that for `CC(C)[C@]1(F)CCc2nc3c(F)cc(C(=O)N[C@H](CCN4CCCCC4CCO)c4ccc(-c5ccnnc5)nc4)cc3cc2C1` (mixture of isomers) [Example 53, rac-(7S)-4,7-difluoro-7-isopropyl-N-[rac-(1R)-3-[2-(2-hydroxyethyl)-1-piperidyl]-1-(6-pyridazin-4-yl-3-pyridyl)propyl]-6,8-dihydro-5H-acridine-2-carboxamide], 7.01. As for `CC(C)[C@]1(F)CCc2nc3c(F)cc(C(=O)N[C@H](CCN4CCC(C(O)C5(CO)CC5)CC4)c4ccc(-c5ccnnc5)nc4)cc3cc2C1` (mixture of isomers) [Example 54, rac-(7S)-4,7-difluoro-7-isopropyl-N-[rac-(1R)-3-[4-[hydroxy-[1-(hydroxymethyl)cyclopropyl]methyl]-1-piperidyl]-1-(6-pyridazin-4-yl-3-pyridyl)propyl]-6,8-dihydro-5H-acridine-2-carboxamide], the pEC50 was 7.04. The result for `CC(C)[C@]1(F)CCc2nc3c(F)cc(C(=O)N[C@H](CCN4CCC5(CCCO5)CC4)c4ccc(-c5ccnnc5)nc4)cc3cc2C1` (racemic) [Example 55, rac-(7S)-4,7-difluoro-7-isopropyl-N-[rac-(1R)-3-(1-oxa-8-azaspiro[4.5]decan-8-yl)-1-(6-pyridazin-4-yl-3-pyridyl)propyl]-6,8-dihydro-5H-acridine-2-carboxamide] reads 6.46; that for `CC(C)C1CCN(CC[C@@H](NC(=O)c2cc(F)c3nc4c(cc3c2)C[C@](F)(C(C)C)CC4)c2ccc(-c3ccnnc3)nc2)CC1` (racemic) [Example 56, rac-(7S)-4,7-difluoro-7-isopropyl-N-[rac-(1R)-3-(4-isopropyl-1-piperidyl)-1-(6-pyridazin-4-yl-3-pyridyl)propyl]-6,8-dihydro-5H-acridine-2-carboxamide], 6.59; that for `CC(C)[C@]1(F)CCc2nc3c(F)cc(C(=O)N[C@H](CCN4CCCOCC4)c4ccc(-c5ccnnc5)nc4)cc3cc2C1` (racemic) [Example 57, rac-(7S)-4,7-difluoro-7-isopropyl-N-[rac-(1R)-3-(1,4-oxazepan-4-yl)-1-(6-pyridazin-4-yl-3-pyridyl)propyl]-6,8-dihydro-5H-acridine-2-carboxamide], 6.85. Compound `CC(C)[C@]1(F)CCc2nc3c(F)cc(C(=O)N[C@H](CCN4CCCCC4CO)c4ccc(-c5ccnnc5)nc4)cc3cc2C1` (mixture of isomers) [Example 58, rac-(7S)-4,7-difluoro-7-isopropyl-N-[rac-(1R)-3-[2-(hydroxymethyl)-1-piperidyl]-1-(6-pyridazin-4-yl-3-pyridyl)propyl]-6,8-dihydro-5H-acridine-2-carboxamide] had a negative-log EC50 (pEC50) of 7.10. Take `CC(C)[C@]1(F)CCc2nc3c(F)cc(C(=O)N[C@H](CCN4CCCCC4CN(C)C)c4ccc(-c5ccnnc5)nc4)cc3cc2C1` (mixture of isomers) [Example 59, rac-(7S)-4,7-difluoro-7-isopropyl-N-[rac-(1R)-3-[2-[(dimethylamino)methyl]-1-piperidyl]-1-(6-pyridazin-4-yl-3-pyridyl)propyl]-6,8-dihydro-5H-acridine-2-carboxamide]: the pEC50 was 6.36.

The values above are taken from patent US20220281886A1, “NATRIURETIC PEPTIDE RECEPTOR A AGONISTS USEFUL FOR THE TREATMENT OF CARDIOMETABOLIC DISEASES, KIDNEY DISEASE AND DIABETES” (Merck Sharp & Dohme Corp., priority 2019, published 2022).
